Experimental data: a melting point compilation (Tetko et al.; mined from patent text by program, amines drawn as free bases though some values may be those of a salt)

Row | melting point | Structure (SMILES)
1 | 108 to 109 °C | CCCCC[C@@H](CNC(=O)Nc1c(OCC)ccc2c1CCC2)c1cccc2c1OCO2
2 | 198 to 200 °C | CN1C(=C(C#N)C#N)Oc2ccccc21
3 | 117 to 118 °C | CCOC(=O)C(=NO)c1ccc(F)cc1
4 | 155 °C | CCCCCCCCCCCCCCCCCCOC(=O)CCC1CCCCC1(c1ccc(O)c(C(C)(C)C)c1)c1ccc(O)c(C(C)(C)C)c1 (stereo not drawn)
5 | 245 to 247 °C | CCCCNC1NC(=O)N(c2cccc(C(F)(F)F)c2)C(=O)N1
6 | 284 to 286 °C | C=CCNC1=NS(=O)(=O)c2ccc(Cl)cc2N1
7 | 161 to 162 °C | O=C1NCCCc2cc(OCCCN3CCN(Cc4ccc5ccccc5n4)CC3)ccc21
8 | 168 °C | CC(C)(O)CC(=O)N[C@H]1CC[C@H](CCN2CCC(c3cccc4c3CCO4)CC2)CC1
9 | 57 to 58 °C | CCCCCCCCCCCCCCCCCCOc1cc(OCCCBr)cc(C(=O)OCc2ccccc2)c1
10 | 96 °C | O=C(Nc1ccc2c(c1)CC(NS(=O)(=O)c1ccccc1)C2)c1ccccc1-c1ccc(C(F)(F)F)cc1 (stereo not drawn)
11 | 186 °C | COC(=O)C(=O)Cc1nc([N+](=O)[O-])cn1C
12 | 114 to 115 °C | COC(=O)c1cc(N)c2cc(Cc3ccc(F)cc3)cnc2c1O
13 | 214 to 215 °C | O=C1c2ccccc2S(=O)(=O)N1C1CCN(Cc2c[nH]c3ccccc23)CC1
14 | 114 to 116 °C | NCCCCNC(=O)N1c2ccccc2C=Cc2ccccc21
15 | > 360 °C | Cc1nc2cc(-c3ccc(C=C4SC(=O)NC4=O)cn3)cc(C34CC5CC(CC(C5)C3)C4)c2o1
16 | 121 to 123 °C | Nc1cc(C(F)(F)F)cc([N+](=O)[O-])c1N
17 | 115 to 117 °C | CCCOc1ccc(S(=O)(=O)N2CCN(CC)CC2)cc1-c1nc2cc3ncn(Cc4cccc(F)c4)c3cc2c(=O)[nH]1
18 | 97 to 100 °C | CC(=O)C(C)n1nc(C(=O)NC2CN(C)CCN(Cc3ccccc3)C2)c2ccccc21 (stereo not drawn)
19 | 126 to 127 °C | Fc1cccc(C(F)(F)F)c1N(CC1CC1)C1=NCCN1
20 | 102 to 104 °C | COc1cccc(CO)c1C(O)c1ccccn1 (stereo not drawn)
21 | 163 to 165 °C | CC(=O)OCC1SC(N2CCc3ccccc32)C(OC(C)=O)C(OC(C)=O)C1OC(C)=O (stereo not drawn)
22 | 64 to 66 °C | CC(Cn1ncnn1)n1nnc2cc3c(=O)n(C(C)Cn4ncnn4)nnc3cc2c1=O (stereo not drawn)
23 | 172 to 173 °C | CCCCc1nc(Cl)c(COC(C)=O)n1Cc1ccc(-c2cccc(C(=O)O)c2)cc1
24 | 137 to 138 °C | O=C1CC(Cc2ccncc2)(Cc2ccncc2)C(=O)N1C12CC3CC(CC(C3)C1)C2

Row | melting point | Structure (SMILES)
25 | > 270 °C | O=c1[nH]c2scc(C3CCCCC3)c2[nH]c1=O
26 | 81 °C | CC1C(C)(C)C2=C(c3oncc3CC2)C1(C)C (stereo not drawn)
27 | 111 to 113 °C | CCCCCS(=O)(=O)NC(=O)CCc1ccc(OCC(=O)N(CC)CC)cc1Oc1ncc(C(F)(F)F)cc1Cl
28 | 161 to 162 °C | Cc1cccc(NC(=O)OCCS(C)(=O)=O)c1CNc1cccn2c(C)c(C)nc12
29 | 178 to 180 °C | COc1cc(Cl)ccc1C(=O)Nc1ccc(-n2nc(C(F)(F)F)cc2C(F)(F)F)cc1
30 | 192 to 197 °C | COCc1c(C=O)ncc2c1c1c(OCc3ccccc3)cccc1n2CC(=O)N(C)CCc1ccccc1
31 | 145 to 147 °C | Cn1c(C(F)(F)F)ccc(-c2c(F)cc(Cl)c3oc(CO)cc23)c1=O
32 | 104 to 106 °C | Fc1ccc(C(CN2CCOCC2)=C2SCCCS2)cc1
33 | 56 °C | COc1ccc(Cl)cc1C(C)(C)O
34 | 187 to 188 °C | CNC(C)CN1CCc2c(c(=O)oc3cc(C)c(NC(C)=O)cc23)C1 (stereo not drawn)
35 | 170 to 171 °C | Cc1cccc2cc3c(=O)n(CCCN4CCCC4=O)cc(C(=O)NCCN(C)C)c3nc12
36 | 238 to 240 °C | CCc1nc2c(N)nc3cc(/C=C/C(=O)OC)ccc3c2n1CC(C)(C)O
37 | 245 to 248 °C | CCn1cc(C(=O)O)c(=O)c2cc(F)c(N3CC(C)C(CN)C3)cc21 (stereo not drawn)
38 | 144 to 147 °C | O=C1CCC(=O)C(c2cccc(Cl)c2)N1 (stereo not drawn)
39 | > 270 °C | O=C1c2ccccc2C(Cc2ccncc2)(Cc2ccncc2)C(=O)N1c1ccccc1
40 | 160 to 161 °C | COc1ccc(CN2C(=O)c3ccccc3C2=O)cc1OC
41 | 141 to 144 °C | COC(=O)/C=C/c1cncc(-c2ccc(C)cc2)c1
42 | 117 to 118 °C | COC(=O)C1=C(C)NC(C)=C(C(=O)OCCc2ccc(OCC(O)CO)cc2)C1c1cccc([N+](=O)[O-])c1 (stereo not drawn)
43 | 177 to 179 °C | CC1CCN(C2=Nc3cc(Br)ccc3N3CCc4cccc2c43)CC1
44 | 199 to 200 °C | CCCCCC(c1ccccc1C(F)(F)F)C(C(N)=O)c1cc(C(=O)O)ccc1C(C)(C)C (stereo not drawn)
45 | > 300 °C | CCCn1c(=O)c2nc(-c3ccc(/C=C/C(=O)O)cc3)[nH]c2n(C)c1=O
46 | 197 °C | CC(C(=O)N1c2ccccc2N(C)C(=O)c2cnc(-c3ccccc3)nc21)N1CCNCC1 (stereo not drawn)
47 | 115 to 119 °C | CC1(NC(=O)C(Br)CBr)COCOC1 (stereo not drawn)
48 | 135 to 137 °C | Cc1cc(-n2nn[nH]c2=O)c(Cl)cc1Cl

Row | melting point | Structure (SMILES)
49 | 89 to 90 °C | CC(C)C[C@H](OC(=O)NC1CCCCC1)C(=O)OCc1ccccc1
50 | 92 to 93 °C | COc1ccc(-c2nn(CC(C)C)c3c(F)cccc23)c(OC)c1
51 | 126 °C | CCc1cccc(C)c1CNc1cc(C(=O)N2CCCC2)cc2c1nc(C)n2C
52 | 159 to 160 °C | CCOC(=O)[C@H](CC(C)C)NC(=O)[C@@H](NC(=O)c1ccccc1)C(C)C
53 | 92 to 96 °C | COC(=O)CC1CCc2cc(OC)ncc2C1O (stereo not drawn)
54 | 89 to 94 °C | COc1ccccc1N1CCN(CCNc2ccccn2)CC1
55 | 158 to 159 °C | CCC(=CC(CNC(=O)c1sc(C)nc1C)=NO)C(C)[N+](=O)[O-] (stereo not drawn)
56 | 88 to 89 °C | O=S(=O)(c1ccc(Cl)cc1)C(c1cccc(CCc2ccccn2)n1)c1cc(F)ccc1F (stereo not drawn)
57 | 90 to 125 °C | O=C(O)CCC(CC=Cc1ccccc1Cl)(C(=O)C=Cc1ccc(Cl)cc1)c1ccccc1 (stereo not drawn)
58 | 221 to 222 °C | O=C1NN=C(c2ccc(NC(=O)C3(Cl)CC3)cc2)C2CC12 (stereo not drawn)
59 | 107 °C | COc1ccc(C[C@H](NC(=O)OCc2ccccc2)C(=O)CCl)cc1
60 | 237 to 238 °C | O=C(Nc1ccccc1F)c1c(O)ccn2c1nc1ccccc12
61 | 83 to 84 °C | O=Cc1ccc(OCCBr)c2ccccc12
62 | 179 to 180 °C | CC1CC2=C(Cc3ccccc32)C([Si](C)(C)C2CC(C)CC3=C2Cc2ccccc23)C1 (stereo not drawn)
63 | 155 °C | CCOC(=O)C1=C(C)Nc2ncnc(OC(C)C)c2C1c1ccccc1C(F)(F)F (stereo not drawn)
64 | 206 to 207 °C | CC(C)(C)Sc1c(CC(C)(C)C(=O)O)n(Cc2ccc(Cl)cc2)c2ccc(OCc3cccc(Cl)n3)cc12
65 | 193 to 195 °C | Clc1ccc(-c2cncn3cnnc23)cc1
66 | 178 °C | CN(C)c1cccc2c(S(=O)(=O)Nc3ncc(Br)nc3Br)cccc12
67 | 163 to 165 °C | CN1CNC(=S)N(c2ccc(C(F)(F)F)cc2)C1
68 | 81 to 82 °C | O=C1OC(Cc2ccccc2)CN1Cc1ccccc1 (stereo not drawn)
69 | 126 to 127 °C | CN(Cc1nc(-c2cc(C(C)(C)C)c(O)c(C(C)(C)C)c2)cs1)C(=O)OC(C)(C)C
70 | 113 to 114 °C | Cc1nnc(SCC(=O)C23CC4CC(CC(C4)C2)C3)n1C
71 | 110 to 112 °C | CC(N)CSc1c[nH]c2ccccc12 (stereo not drawn)
72 | 147 to 148 °C | CCCCCS(=O)(=O)NC(=O)/C=C/c1cc(C(C)(C)C)nn1Cc1ccc(C(F)(F)F)cc1Cl

Row | melting point | Structure (SMILES)
73 | 199 to 202 °C | CS(=O)(=O)Nc1cccc(Nc2nc(NCCc3ccccn3)c3nc[nH]c3n2)c1
74 | 149 to 159 °C | O=C1c2ccccc2C(=O)N1CC(O)c1cnc(-c2ccccc2)nc1-c1ccccc1 (stereo not drawn)
75 | 184 to 185 °C | CCCn1c(=O)cc(NNC(=S)NC(C)=O)n(Cc2ccccc2)c1=O
76 | 158 to 162 °C | COc1ccc(N2CCOCC2)c2sc(NC(=O)N(C)[C@H]3CC[C@H](O)CC3)nc12
77 | 164 to 167 °C | Fc1ccc(C(c2ccccc2)(c2ccccc2F)n2ccnc2)cc1 (stereo not drawn)
78 | 118 to 120 °C | Brc1ccc(N2CCOCC2)cc1
79 | 168 to 169 °C | CCCn1c(=O)c2c(nc(/C=C/c3cc(OC)c(OC)c(OC)c3)n2C)n(CCC)c1=O
80 | 150 to 152 °C | C[C@H](NC(=O)C[C@](O)(CC(C)(C)O)c1ccccc1)c1ccc(Br)cc1
81 | 237 to 240 °C | CCOC=C(C(=O)OCC)C(=O)c1ccc(I)cc1Cl
82 | 117 °C | CN(c1ccccc1)S(=O)(=O)N[C@@H](Cc1ccc(NC(=O)c2c(Cl)cccc2Cl)cc1)C(=O)O
83 | 151 to 152 °C | CCOC(=O)c1cn(C)cc(-c2cccc(C(F)(F)F)c2)c1=O
84 | 65 to 68 °C | CC(NCCN(CCNC(C)=C1C(=O)CC(C)(C)CC1=O)C(=O)CCC(=O)O)=C1C(=O)CC(C)(C)CC1=O
85 | 155 to 156 °C | Cc1ncc2c(n1)-c1ccc(Cl)cc1C(c1ccccc1Cl)N(C)C2 (stereo not drawn)
86 | 47 to 49 °C | CCC(CC)Nc1c([N+](=O)[O-])cc(C)c(COC(C)=O)c1[N+](=O)[O-]
87 | 183 to 184 °C | CC(C(=O)O)c1ccc2c(c1)Cc1cccnc1O2 (stereo not drawn)
88 | 65 to 66 °C | COCC(=O)c1cnc(C2OCCO2)s1
89 | 261 °C | O=[N+]([O-])C1NC=CN1c1cccnc1 (stereo not drawn)
90 | 262 to 263 °C | COc1ccc(-c2cc(=O)n(C)c(=O)[nH]2)cc1OC
91 | 69 to 71 °C | ClCCCON=C(Cl)c1c(Cl)cccc1Cl
92 | 125 °C | CCC(C(=O)c1ccc(Cl)cc1)n1ncn(-c2ccc(N3CCN(C(C)=O)CC3)cc2)c1=O (stereo not drawn)
93 | 168 to 169 °C | O=CN(O)C(CS(=O)(=O)c1ccc(-c2ccc(C(F)(F)F)cc2)cc1)c1ccccn1 (stereo not drawn)
94 | 128 to 130 °C | COc1ccc(C2OC3(CCNCC3)N3CCCCC23)cc1 (stereo not drawn)

Row | Structure (SMILES) | melting point
95 | C[C@@H]1N=C(c2ccccc2)c2cc(I)ccc2N(C)C1=O | 115 °C
96 | O=[N+]([O-])C=Cc1cccc(Cl)c1Cl | 89 to 91 °C
97 | CN1C2CCC1CC(c1n[nH]c3cc(F)ccc13)C2 (stereo not drawn) | 235 to 236 °C
98 | COc1cc2c(c(OC)c1OC)-c1ccc(NC(=O)C(C)NC(=O)OCc3ccccc3)cc1C(NC(C)=O)CC2 (stereo not drawn) | 140 to 141 °C
